Results taken from publication PMC5259791 (Scientific Reports, 2017).
Entries after “also recorded” stand apart in the source; their conditions may differ. Values belong to the compound of their own block, whether it stands above or below them.

Legend:
PPARγ = target: T1, PPARγ (Homo sapiens, UniProt P37231); test: SPR on immobilized PPARγ; assay type: binding; conditions: SPR, immobilized PPARγ
T1 sequence (P37231 195-477 isoform P37231-2 limits assumed): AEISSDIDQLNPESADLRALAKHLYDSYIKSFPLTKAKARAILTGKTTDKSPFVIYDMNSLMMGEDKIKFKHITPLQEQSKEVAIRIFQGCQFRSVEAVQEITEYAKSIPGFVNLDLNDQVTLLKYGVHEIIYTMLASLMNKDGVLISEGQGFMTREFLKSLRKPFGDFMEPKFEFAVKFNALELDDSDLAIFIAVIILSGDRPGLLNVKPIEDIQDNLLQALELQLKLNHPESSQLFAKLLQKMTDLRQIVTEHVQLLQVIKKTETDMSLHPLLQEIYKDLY
Method: ; SPR analysis was also performed using the immobilized PPARγ LBD to evaluate if this protein portion was involved in the interaction with 1; […]. Conversely, no affinity of the diterpene towards Hsp60 was observed (Fig. 2c).
To assess the potential of 1 to act as a PPARγ modulator, we investigated the structural and functional aspects of its interaction with this nuclear receptor. To define the structural features required by 1 for an efficient interaction with PPARγ, as a first step, we performed SPR analyses using some diterpenes displaying structural relationship with 1 (compounds 2–9, Fig. 1). […]. SPR analyses were carried out on a BIACORE 3000 instrument (GE-Healthcare). PPARα, PPARγ, PPARδ and HSP60 surfaces were prepared on research−grade CM5 sensor chips (GE Healthcare). Proteins (100 μg/ml in 10 mM CH3COONa, pH 5.0) were immobilized using a standard amine−coupling protocol, to obtain densities of 3–5 kRU. Testing compounds were dissolved in 100% DMSO to obtain 4 mM solutions, and then diluted in PBS containing variable amounts of DMSO, achieving a final DMSO concentration of 0.1%. […]. SPR experiments and data elaboration were carried out as reported elsewhere.

HT-29 cells = test: HT-29 cell growth (cell counting); conditions: GW9662 10 μM 6 h, then compound 10 μM for 24 and 48 h
Method: Data are the mean ± SD of three independent experiments performed in duplicate giving similar results. Significance is indicated as *p ≤ 0.05, **p ≤ 0.01 and ***p ≤ 0.001. (b) HT29 cells were seeded in 24-well in order to reach the density of cells/cm^2 in standard conditions (10^5 cells). […] The experiments were performed in triplicate and the data expressed as mean ± SD. Significance is indicated as **p ≤ 0.01 and ***p ≤ 0.001.

KD (PPARγ): No binding
SMILES: C=C1C2CCC3C(CCC4[C@@H](CO)C[C@@H](O)C[C@]43C)(C2)[C@H]1O (some centres unmarked) [Compound 5]

KD (PPARγ): No binding
SMILES: CC1CC23CC1CCC2[C@]1(C)C[C@H](C)C[C@](C)(C(=O)O)C1CC3=O (some centres unmarked) [Compound 7]

KD (PPARγ): not detected; also recorded: No binding
SMILES: C=C1C(=O)C23C(O)C1CCC2C12COC3(O)C(O)C1C(C)(C)CCC2O (centres unmarked) [Compound 8]

KD (PPARγ): not detected; also recorded: No binding
SMILES: C=C1C(=O)C23CCC4[C@@]5(C)C[C@@H](O)C[C@@]4(OC5=O)[C@@]2(C)CC[C@]1(O)C3 (some centres unmarked) [Compound 9]

More lines, now with the values behind:

SMILES: C=C1C2CCC3C(CCC4[C@@H](C(=O)OC)C[C@@H](O)C[C@]43C)(C2)[C@H]1O (some centres unmarked) [Compound 2]
Kd (PPARγ): 1.86 ± 0.078 µM
koff (PPARγ): 0.051 s⁻¹

SMILES: C=C1C2CCC3C(CCC4[C@@H](C(=O)OC)C[C@@H](O)C[C@]43C)(C2)[C@@H]1O (some centres unmarked) [Compound 3]
Kd (PPARγ): 4.59 ± 0.206 µM
koff (PPARγ): 0.096 s⁻¹

SMILES: C=C1C2CCC3C(CCC4[C@@H](C(=O)O)C[C@@H](O)C[C@]43C)(C2)[C@H]1O (some centres unmarked) [Compound 4]
KD (PPARγ): No binding

SMILES: C=C1C2CCC3C(CCC4[C@@H](C(=O)OC)C[C@@H](OC(C)=O)C[C@]43C)(C2)[C@H]1OC(C)=O (some centres unmarked) [Compound 6]
KD (PPARγ): No binding

SMILES: CN(CCOc1ccc(CC2SC(=O)NC2=O)cc1)c1ccccn1 (centres unmarked) [Rosiglitazone, reference compound]
cell counts after GW9662 pre-treatment versus compound alone (HT-29 cells): less pronounced effect
